From ChEMBL document CHEMBL6121004, “Design, synthesis, and biological evaluation of Ponatinib-based N-Phenylpyrimidine-2-amine derivatives as novel fibroblast growth factor receptor 4 (FGFR4) selective inhibitors” (Eur J Med Chem, 2025) come the findings set out here.

Data set [1] deals with Platelet-derived growth factor receptor alpha (Homo sapiens) (UniProt P16234). Put plainly: Inhibition of PDGFRalpha (unknown origin) at 1 uM relative to control.
Data set [2] addresses Tyrosine-protein kinase ABL2 (Homo sapiens) (UniProt P42684). Put plainly: Inhibition of ABL2 (unknown origin) at 1 uM relative to control.
Data set [3] deals with Hep 3B2. As to the kind of experiment: cells. Conditions: Homo sapiens, Hep3B, 72 h.
Description: Antiproliferative activity against human Hep3B cells assessed as inhibition of cell proliferation incubated for 72 hrs by MTT assay
Data set [4] can be described thus: Clearance in BALB/c male mouse at 1 mg/kg, iv measured upto 24 hrs by LC-MS/MS analysis. The class given is ADME, organism-based. Conditions: in vivo.
The test system of data set [5] is Huh-7. Put plainly: Antiproliferative activity against human Huh-7 cells assessed as cell viability at […] pre-incubated with compound for 12 hrs followed by compound washout and measured after 4 days. Type of data set: functional, cell-based. As to conditions: dose 1.6 µM.
The test system of data set [6] is Huh-7. As to the kind of experiment: Induction of apoptosis in human Huh-7 cells assessed as late apoptotic cells at 1 uM incubated for 48 hrs by annexin V-FITC/propidium iodide staining based flow cytometry analysis (reference value: 5.20%). Type of data set: functional.
For data set [7], the system named is Hep 3B2. As to the kind of experiment: Induction of apoptosis in human Hep3B cells assessed as late apoptotic cells at 1 uM incubated for 48 hrs by annexin V-FITC/propidium iodide staining based flow cytometry analysis (reference value: 5.20%). The class given is functional.
Data set [8] concerns Hep 3B2. Put plainly: Induction of apoptosis in human Hep3B cells assessed as early apoptotic cells at 0.25 uM incubated for 48 hrs by annexin V-FITC/propidium iodide staining based flow cytometry analysis (reference value: 4.69%). Type of data set: functional.
The subject of data set [9] is Huh-7. As to the kind of experiment: Induction of apoptosis in human Huh-7 cells assessed as necrotic cells at 1 uM incubated for 48 hrs by annexin V-FITC/propidium iodide staining based flow cytometry analysis (reference value: 5.20%). Type of data set: functional.
The subject of the next data set is Hep3B. As to the kind of experiment: Inhibition of MAPK phosphorylation in human Hep3B cells incubated for 48 hrs by Western blot analysis. Type of data set: cell-based. As to conditions: dose 0.25-1 µM. (In general: In western blotting, separated proteins are transferred to a membrane and probed.)
Data set [10] in a line: Toxicity in male nude mouse implanted with human Huh-7 cells assessed as spleen damage at 12.5 to 50 mg/kg, ip administered for 15 days. Type of data set: organism-based. As to conditions: in vivo, 360 h, dose 12.5-50 mg/kg, time 15 day.
The subject of data set [11] is Huh-7. As to the kind of experiment: Induction of apoptosis in human Huh-7 cells assessed as early apoptotic cells at 0.5 uM incubated for 48 hrs by annexin V-FITC/propidium iodide staining based flow cytometry analysis (reference value: 4.59%). Type of data set: functional.
Data set [12] can be described thus: Antiproliferative activity against human L02 cells assessed as inhibition of cell proliferation incubated for 72 hrs by MTT assay. The class given is toxicity, cell-based. For orientation: Tetrazolium dyes change colour on reduction, which living cells bring about.
The nature of data set [13]: Cmax in BALB/c male mouse at 10 mg/kg, po measured upto 24 hrs by LC-MS/MS analysis. The class given is ADME, organism-based. Conditions: in vivo.
The subject of data set [14] is Hep 3B2. Put plainly: Induction of apoptosis in human Hep3B cells assessed as early apoptotic cells at 1 uM incubated for 48 hrs by annexin V-FITC/propidium iodide staining based flow cytometry analysis (reference value: 4.69%). Type of data set: functional.
Data set [15] relates to Huh-7. As to the kind of experiment: Induction of apoptosis in human Huh-7 cells assessed as early apoptotic cells at 1 uM incubated for 48 hrs by annexin V-FITC/propidium iodide staining based flow cytometry analysis (reference value: 4.59%). Type of data set: functional. Background: In flow cytometry, cells or beads pass a laser one at a time.
The nature of data set [16]: Toxicity in male nude mouse implanted with human Huh-7 cells assessed as heart damage at 12.5 to 50 mg/kg, ip administered for 15 days. The class given is organism-based. As to conditions: in vivo, 360 h, dose 12.5-50 mg/kg, time 15 day.
Data set [17] is described as follows: MRT (0 to t) in BALB/c male mouse at 10 mg/kg, po measured upto 24 hrs by LC-MS/MS analysis. The class given is ADME, organism-based. As to conditions: in vivo.
Data set [18] is described as follows: GSH reactivity in potassium phosphate buffer at pH 7.4 assessed as half life at 1 uM measured at 2 to 1440 mins by LC-MS/MS analysis. The class given is physicochemical. Conditions: potassium phosphate buffer with GSH, time 2-1440 min.
In data set [19] the test system is Huh-7. Put plainly: cells. As to conditions: Homo sapiens, Huh-7, 72 h.
Description: Antiproliferative activity against human Huh-7 cells assessed as inhibition of cell proliferation incubated for 72 hrs by MTT assay
The test system of data set [20] is Huh-7. As to the kind of experiment: Induction of apoptosis in human Huh-7 cells assessed as necrotic cells at 0.1 uM incubated for 48 hrs by annexin V-FITC/propidium iodide staining based flow cytometry analysis (reference value: 5.20%). Type of data set: functional.

Molecules are shown by their SMILES. Activity calls are given as the source filed them. No cut-off for these calls is given here.

Chain of Platelet-derived growth factor receptor alpha (Homo sapiens) (P16234 whole entry): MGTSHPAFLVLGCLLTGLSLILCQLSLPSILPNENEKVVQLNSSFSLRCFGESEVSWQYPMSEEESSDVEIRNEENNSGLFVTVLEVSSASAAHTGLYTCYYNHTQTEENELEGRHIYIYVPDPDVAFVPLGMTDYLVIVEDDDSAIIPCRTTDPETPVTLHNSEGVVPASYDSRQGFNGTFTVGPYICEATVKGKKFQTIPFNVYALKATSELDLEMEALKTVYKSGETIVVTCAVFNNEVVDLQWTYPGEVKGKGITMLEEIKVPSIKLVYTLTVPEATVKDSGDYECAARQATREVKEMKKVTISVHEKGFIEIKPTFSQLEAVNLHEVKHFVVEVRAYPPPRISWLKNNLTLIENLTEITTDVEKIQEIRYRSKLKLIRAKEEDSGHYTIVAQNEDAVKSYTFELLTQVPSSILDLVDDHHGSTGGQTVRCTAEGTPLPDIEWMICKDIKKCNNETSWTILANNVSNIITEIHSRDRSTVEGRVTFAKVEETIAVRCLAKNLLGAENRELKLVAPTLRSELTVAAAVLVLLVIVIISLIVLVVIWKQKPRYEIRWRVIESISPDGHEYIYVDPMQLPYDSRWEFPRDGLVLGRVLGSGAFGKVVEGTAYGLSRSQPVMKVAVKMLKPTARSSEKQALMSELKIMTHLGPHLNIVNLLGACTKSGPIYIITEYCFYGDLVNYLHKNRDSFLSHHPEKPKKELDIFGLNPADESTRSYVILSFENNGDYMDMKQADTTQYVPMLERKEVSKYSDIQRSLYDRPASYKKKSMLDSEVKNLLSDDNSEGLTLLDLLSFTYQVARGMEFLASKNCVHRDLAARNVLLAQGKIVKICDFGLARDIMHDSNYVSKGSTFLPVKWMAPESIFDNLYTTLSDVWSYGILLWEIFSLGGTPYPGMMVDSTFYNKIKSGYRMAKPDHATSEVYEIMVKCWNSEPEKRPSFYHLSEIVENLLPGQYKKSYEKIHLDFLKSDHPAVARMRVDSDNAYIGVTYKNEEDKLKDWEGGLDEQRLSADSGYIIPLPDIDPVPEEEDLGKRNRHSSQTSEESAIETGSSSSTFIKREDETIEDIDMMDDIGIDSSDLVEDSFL
Chain of Tyrosine-protein kinase ABL2 (Homo sapiens) (P42684 whole entry): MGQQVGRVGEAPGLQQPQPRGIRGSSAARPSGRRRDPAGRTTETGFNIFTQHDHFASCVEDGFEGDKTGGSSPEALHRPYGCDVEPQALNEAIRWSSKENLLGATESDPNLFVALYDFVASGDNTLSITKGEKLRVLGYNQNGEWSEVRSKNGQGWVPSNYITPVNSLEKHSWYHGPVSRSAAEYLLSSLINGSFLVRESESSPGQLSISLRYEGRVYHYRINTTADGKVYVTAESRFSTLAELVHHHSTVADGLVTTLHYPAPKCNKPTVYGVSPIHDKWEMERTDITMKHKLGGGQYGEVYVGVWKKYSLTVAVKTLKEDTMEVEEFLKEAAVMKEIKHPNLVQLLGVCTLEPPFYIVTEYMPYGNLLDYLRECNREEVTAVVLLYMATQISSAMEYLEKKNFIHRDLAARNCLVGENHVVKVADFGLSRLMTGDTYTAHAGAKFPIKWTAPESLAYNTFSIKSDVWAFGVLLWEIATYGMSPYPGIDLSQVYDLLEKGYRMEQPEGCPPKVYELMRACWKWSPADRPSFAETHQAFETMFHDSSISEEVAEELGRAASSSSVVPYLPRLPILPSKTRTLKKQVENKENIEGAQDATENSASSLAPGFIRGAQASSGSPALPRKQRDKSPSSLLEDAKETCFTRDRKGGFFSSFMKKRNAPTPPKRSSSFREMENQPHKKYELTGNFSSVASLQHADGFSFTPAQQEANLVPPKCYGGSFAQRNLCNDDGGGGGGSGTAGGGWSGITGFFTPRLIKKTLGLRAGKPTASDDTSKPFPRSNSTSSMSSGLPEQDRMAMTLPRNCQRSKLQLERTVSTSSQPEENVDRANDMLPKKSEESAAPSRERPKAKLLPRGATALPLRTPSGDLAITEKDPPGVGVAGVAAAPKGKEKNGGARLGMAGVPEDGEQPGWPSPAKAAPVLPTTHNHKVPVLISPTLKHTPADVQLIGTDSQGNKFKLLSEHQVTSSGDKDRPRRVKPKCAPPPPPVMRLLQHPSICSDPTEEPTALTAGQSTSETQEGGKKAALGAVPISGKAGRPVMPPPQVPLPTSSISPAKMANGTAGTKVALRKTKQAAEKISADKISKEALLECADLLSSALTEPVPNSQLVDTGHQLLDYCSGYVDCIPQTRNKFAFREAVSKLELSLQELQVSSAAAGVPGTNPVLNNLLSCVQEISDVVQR

What is called inhibition is the change of the read-out against control, counted positive when it falls. One may read the IC50 as the concentration at which inhibition is half-maximal. As usually defined, the clearance is a measure of how efficiently the substance is removed, as volume per time. A higher clearance goes with efficient removal. In general, Cmax refers to the maximum level reached in the sampled fluid or tissue. A word on the MRT last: it is the average time that molecules of a dose stay in the body. By half-life is commonly meant the time in which the quantity being followed falls by half. As to `C=CC(=O)Nc1cccc(C)c1Nc1ncc(C#Cc2cccc(C(=O)Nc3ccc(CN4CCN(C)CC4)c(C(F)(F)F)c3)c2)cn1`, the inhibition in data set [1] is < 70%; in data set [2], < 70%; in the data set with Hep3B, “Dose-dependent-effect”. Moreover, the IC50 in the data set on Hep 3B2 [3] is 70 nM; with Huh-7 [19], 150 nM. Moreover, the clearance in data set [4] stood at 67.9 mL/min/kg. Moreover, the outcome in the data set with Huh-7 [5] was Active. Also, the Activity in the data set on Huh-7 [6] is on record as 25.23%; in the data set on Hep 3B2 [7] it was 22.07%; with Hep 3B2 [8], 4.38%; with Huh-7 [9], 9.67%; in [10], “Non-toxic”; in the data set with Huh-7 [11], 5.07%. In addition, the Activity was 9.61% with Hep 3B2 [14], 2.12% in the data set on Huh-7 [15], “Non-toxic” in [16] and 2.37% in the data set on Huh-7 [20]. Moreover, the IC50 at 72 h in data set [12] is > 10000 nM. In [13], this compound returned a peak concentration (Cmax) of 91.3 ng/mL. Also, in data set [17], the mean residence time MRT last at 24 h is 2.65 h. The half-life at 1 µM in [18] stood at 1.35 h.
